Measured values published in patent US6613317B1, “Volatile attractants for diabrotica species” (priority 1988, dated 2003).
Marks after values point to notes of the source that are not given here.

Tests used:
[1] = test system: northern corn rootworm (NCR); test: Sticky trap attraction in corn, phenylethanol analogues (Example 6); type: in vivo, Diabrotica barberi; settings: for Mean number of NCR per trap (± standard deviation) / Mean number (control subtracted) of NCR per trap: four replicates; for Mean number of NCR per trap (± standard deviation): 24 hour
Method: (§1) Test chemicals (purchased from Aldrich Chemical Co.; Milwaukee, Wis.) were applied by capillary micropipettes to cotton dental wicks that were attached to tops of 1.0 liter cylindrical paper cartons covered with TangleTrap™, Grand Rapids, Mich. The trapping techniques used were as previously described in Example 1. Unless otherwise indicated, all treatments were made at a dosage of 100 mg or 100 μL of attractant per trap. Control traps had untreated wicks. Four replicates of treated and untreated traps were positioned randomly 10 meters apart on top of 1 m high posts along the edges of 25-50 ha. fields of hybrid corn (Zea mays), infested with adult NCR, SCR, and WCR beetles. Several experiments detailed in the Tables were made in a 0.4 ha plot of sweet corn (Illini X-tra Sweet).
(§2) Attraction of Diabrotica species adults of the sticky traps was measured by the mean number of beetles caught after 1 day (ca. 24 hours) exposure. The significance of the treatments was determined by analysis of variance and the individual means were separated by Duncan's multiple range test (Statistical Package for the Social Sciences, Nie, et al., 2nd. ed. McGraw-Hill, New York (1975). The data was logarithmically transformed for statistical analysis. Means and standard deviations are presented for the untransformed data. Significance levels were set at P=0.05 for all statistical analyses.

[2] = test system: western corn rootworm (WCR); test: as above; type: in vivo, Diabrotica virgifera virgifera; settings: 100 mg per trap, four replicates, 24 hour; for Mean number of WCR per trap (± standard deviation), column WCW: Table 17
Method: as §1, §2

SCR = test: Limit of response rating of squash blossom volatiles on sticky traps (Example 5); type: in vivo, Diabrotica undecimpunctata howardi; settings: 24 hour; four replicate traps; 0.01 mg to 200 mg
Method: (§3) Over 40 individual volatile chemicals have been isolated from Cucurbita maxima blossoms and circa 25 of these have been unequivocally identified (Andersen, J. F., J. Agric. Food Chem., 35:60-62 (1987): Andersen, J. F. and Metcalf, R. L., J. Chem. Ecol., 12:687-699 (1986)). The major odor components were evaluated as potential attractants for adult Diabrotica species using cylindrical sticky traps baited with dental cotton wicks (Metcalf, R. L., and Lampman, R. L., Paper submitted to J. Econ. Entomol., (1988)) containing from 0.01 mg to 200 mg of volatile compound.

WCR = test: as above; type: in vivo, Diabrotica virgifera virgifera; settings: 24 hour; four replicate traps; 0.01 mg to 200 mg
Method: as §3

[3] = test system: western corn rootworm (WCR) adults; test: Sticky trap attraction in corn, estragole analogues (Example 3); type: in vivo, Diabrotica virgifera virgifera; settings: 100 mg per trap, n = 4; for Mean number of WCR per sticky trap after 24 hours: August 5 (Table 10)
Method: as §1, with “chemicals” for “chemicals (purchased from Aldrich Chemical Co.; Milwaukee, Wis.)”, “Cinnamyl alcohol, 4-methoxycinnamaldehyde, cinnamyl acetate, and 4-(4′methoxyphenyl)-3-butene-2-one which are solids at ambient temperature were prepared as standard w/v solutions in acetone prior to dosing the cotton wicks. All” for “Unless otherwise indicated, all”
as §2

NCR = test: Limit of response rating of squash blossom volatiles on sticky traps (Example 5); type: in vivo, Diabrotica barberi; settings: 24 hour; four replicate traps; 0.01 mg to 200 mg
Method: as §3

[4] = test system: southern corn rootworm (SCR) adults; test: Sticky trap attraction in corn, estragole analogues (Example 3); type: in vivo, Diabrotica undecimpunctata howardi; settings: 100 mg per trap, n = 4; for Mean number of SCR per sticky trap after 24 hours: August 5 (Table 10)
Method: as §1, with “chemicals” for “chemicals (purchased from Aldrich Chemical Co.; Milwaukee, Wis.)”, “Cinnamyl alcohol, 4-methoxycinnamaldehyde, cinnamyl acetate, and 4-(4′methoxyphenyl)-3-butene-2-one which are solids at ambient temperature were prepared as standard w/v solutions in acetone prior to dosing the cotton wicks. All” for “Unless otherwise indicated, all”
as §2

[5] = test system: northern corn rootworm (NCR) adults; test: as above; type: in vivo, Diabrotica barberi; settings: 100 mg per trap, n = 4; for Mean number of NCR per sticky trap after 24 hours: August 5 (Table 10)
Method: as §1, with “chemicals” for “chemicals (purchased from Aldrich Chemical Co.; Milwaukee, Wis.)”, “Cinnamyl alcohol, 4-methoxycinnamaldehyde, cinnamyl acetate, and 4-(4′methoxyphenyl)-3-butene-2-one which are solids at ambient temperature were prepared as standard w/v solutions in acetone prior to dosing the cotton wicks. All” for “Unless otherwise indicated, all”
as §2

[6] = day 1 after single 100 mg dosage on cotton wick
[7] = day 2 after single 100 mg dosage on cotton wick
[8] = day 3 after single 100 mg dosage on cotton wick
[9] = day 4 after single 100 mg dosage on cotton wick
[10] = day 5 after single 100 mg dosage on cotton wick
[11] = day 6 after single 100 mg dosage on cotton wick
[12] = day 7 after single 100 mg dosage on cotton wick
[13] = day 8 after single 100 mg dosage on cotton wick
[14] = day 11 after single 100 mg dosage on cotton wick

OCCCc1ccccc1
Mean number of NCR per trap (± standard deviation) ([1]; Table 17, 100 mg per trap): 36.2 ± 12.2c per trap
Mean number (control subtracted) of NCR per trap [1, 6]: 76.5 per trap
Mean number (control subtracted) of NCR per trap [1, 7]: 115.3 per trap
Mean number (control subtracted) of NCR per trap [1, 8]: 38.8 per trap
Mean number (control subtracted) of NCR per trap [1, 9]: 25.0 per trap
Mean number (control subtracted) of NCR per trap [1, 10]: 41.8 per trap
Mean number (control subtracted) of NCR per trap [1, 11]: 10.5 per trap
Mean number (control subtracted) of NCR per trap [1, 12]: 10.7 per trap
Mean number (control subtracted) of NCR per trap [1, 13]: 29.5 per trap
Mean number (control subtracted) of NCR per trap [1, 14]: 4.5 per trap
Mean number of WCR per trap (± standard deviation), column WCW [2]: 4.0 ± 2.9a per trap

COc1ccccc1CCO [2-methoxyphenylethanol]
Mean number of NCR per trap (± standard deviation) ([1]; Table 16, 100 mg per trap): 13.5 ± 9.3a per trap
Mean number of WCR per trap (±standard deviation) ([2]; Table 16): 6.0 ± 5.1a per trap

COc1cccc(CCO)c1 [3-methoxyphenylethanol]
Mean number of NCR per trap (± standard deviation) ([1]; Table 16, 100 mg per trap): 7.2 ± 3.4a per trap
Mean number of WCR per trap (±standard deviation) ([2]; Table 16): 3.7 ± 2.1a per trap

Nc1ccc(CCO)cc1 [4-aminophenylethanol]
Mean number of NCR per trap (± standard deviation) ([1]; Table 15, 100 mg per trap): 10.5 ± 2.1a per trap
Mean number of WCR per trap (±standard deviation) ([2]; Table 15): 8.5 ± 3.4a per trap

OCCc1ccc(Cl)cc1 [4-chlorophenylethanol]
Mean number of NCR per trap (± standard deviation) ([1]; Table 15, 100 mg per trap): 30.0 ± 7.4b per trap
Mean number of WCR per trap (±standard deviation) ([2]; Table 15): 13.7 ± 3.9a per trap

OCCc1ccc(F)cc1 [4-fluorophenylethanol]
Mean number of NCR per trap (± standard deviation) ([1]; Table 15, 100 mg per trap): 38.0 ± 6.2b per trap
Mean number of WCR per trap (±standard deviation) ([2]; Table 15): 14.0 ± 12.3a per trap

COc1ccc(CCO)cc1 [4-methoxyphenylethanol]
Mean number of NCR per trap (± standard deviation) ([1]; Table 15, 100 mg per trap): 187.7 ± 62.5d* per trap
Mean number of NCR per trap (± standard deviation) ([1]; Table 16, 100 mg per trap): 60.3 ± 26.8b* per trap
Mean number of NCR per trap (± standard deviation) ([1]; Table 17, 100 mg per trap): 56.7 ± 7.5c per trap
lowest level attractive to NCR ([1]; Table 18): ≤ 0.1 mg
Mean number of NCR per trap (± standard deviation) ([1]; Table 18, 0.1 mg): 16.2 ± 1.2b per trap
Mean number of NCR per trap (± standard deviation) ([1]; Table 18, 0.3 mg): 32.7 ± 9.4c per trap
Mean number of NCR per trap (± standard deviation) ([1]; Table 18, 1 mg): 41.0 ± 23.4c per trap
Mean number of NCR per trap (± standard deviation) ([1]; Table 18, 3 mg): 72.0 ± 10.8d per trap
Mean number (control subtracted) of NCR per trap [1, 6]: 134.5 per trap
Mean number (control subtracted) of NCR per trap [1, 7]: 231.8 per trap
Mean number (control subtracted) of NCR per trap [1, 8]: 93.1 per trap
Mean number (control subtracted) of NCR per trap [1, 9]: 51.5 per trap
Mean number (control subtracted) of NCR per trap [1, 10]: 128.9 per trap
Mean number (control subtracted) of NCR per trap [1, 11]: 49.2 per trap
Mean number (control subtracted) of NCR per trap [1, 12]: 76.7 per trap
Mean number (control subtracted) of NCR per trap [1, 13]: 99.0 per trap
Mean number (control subtracted) of NCR per trap [1, 14]: 64.8 per trap
Mean number of WCR per trap (±standard deviation) ([2]; Table 15): 5.7 ± 2.8a per trap
Mean number of WCR per trap (±standard deviation) ([2]; Table 16): 3.5 ± 2.1a per trap
Mean number of WCR per trap (± standard deviation), column WCW [2]: 6.0 ± 4.2a per trap

COc1ccc(CCCO)cc1 [4-methoxyphenylpropanol]
Mean number of NCR per trap (± standard deviation) ([1]; Table 17, 100 mg per trap): 15.5 ± 6.2b per trap
Mean number of WCR per trap (± standard deviation), column WCW [2]: 3.2 ± 2.2a per trap

Cc1ccc(CCO)cc1 [4-methylphenylethanol]
Mean number of NCR per trap (± standard deviation) ([1]; Table 15, 100 mg per trap): 89.2 ± 7.8c per trap
Mean number of WCR per trap (±standard deviation) ([2]; Table 15): 12.2 ± 5.6a per trap

O=[N+]([O-])c1ccc(CCO)cc1 [4-nitrophenylethanol]
Mean number of NCR per trap (± standard deviation) ([1]; Table 15, 100 mg per trap): 7.7 ± 2.7a per trap
Mean number of WCR per trap (±standard deviation) ([2]; Table 15): 7.9 ± 5.1a per trap

O=CC=Cc1ccccc1 [XII, cinnamaldehyde]
Attractant Rating SCR (by limit of response) (SCR): +4 (1-3)
Attractant Rating WCR (by limit of response) (WCR): +3 (3-10)
Mean number of WCR adults per sticky trap (±standard deviation) after 24 hours ([3]; August 4 second year): 32.2 ± 8.5^b per sticky trap
Mean number of WCR per sticky trap after 24 hours [3]: 44.5 ± 25.5^d per sticky trap
Mean number of WCR adults per sticky trap (±standard deviation) after 24 hours ([3]; August 5 first year): 4.0 ± 1.8^b per sticky trap
Mean number of WCR (±standard deviation) per sticky trap after 24 hours ([3]; August 7 (Table 11)): 61.5 ± 15.6^b per sticky trap
Mean number of WCR adults per sticky trap (±standard deviation) after 24 hours ([3]; September 11): 1.3 ± 1.3^a per sticky trap
Attractant Rating NCR (by limit of response) (NCR): 0 (200)
Mean number of NCR per trap (± standard deviation) ([1]; Table 17, 100 mg per trap): 15.5 ± 3.8b per trap
Mean number of SCR adults per sticky trap (±standard deviation) after 24 hours ([4]; August 4 second year): 135.5 ± 29.3^d per sticky trap
Mean number of SCR per sticky trap after 24 hours [4]: 67.5 ± 23.1^d per sticky trap
Mean number of SCR adults per sticky trap (±standard deviation) after 24 hours ([4]; August 5 first year): 431.2 ± 120.3^d per sticky trap
Mean number of SCR (±standard deviation) per sticky trap after 24 hours ([4]; August 7 (Table 11)): 63.5 ± 25.7^c per sticky trap
Mean number of SCR adults per sticky trap (±standard deviation) after 24 hours ([4]; September 11): 24.0 ± 10.5^c per sticky trap
Mean number of WCR per trap (± standard deviation), column WCW [2]: 56.0 ± 34.6b per trap
Mean number of NCR per sticky trap after 24 hours [5]: 1.2 ± 1.3^a per sticky trap
Mean number of NCR (±standard deviation) per sticky trap after 24 hours ([5]; August 7 (Table 11)): 0.3 ± 0.5^a per sticky trap

O=C(O)CCc1ccccc1 [XXII, dihydrocinnamic acid]
Mean number of WCR per sticky trap after 24 hours [3]: 12.0 ± 3.6^a per sticky trap
Mean number of SCR per sticky trap after 24 hours [4]: 33.7 ± 8.7^bc per sticky trap
Mean number of NCR per sticky trap after 24 hours [5]: 4.0 ± 1.4^b per sticky trap

N#CCCc1ccccc1 [XXIII, phenyl propionitrile]
Mean number of WCR per sticky trap after 24 hours [3]: 12.0 ± 4.2^a per sticky trap
Mean number of SCR per sticky trap after 24 hours [4]: 23.7 ± 9.7^b per sticky trap
Mean number of NCR per sticky trap after 24 hours [5]: 0.3 ± 0.5^a per sticky trap
